# From article PMC10791743, “Selective CK1α degraders exert antiproliferative activity against a broad range of human cancer cell lines” (Nature Communications, 2024)
# “And” between values parts separate entries of the source, which are not always exact repeats. Equal entries are not always repeated.
# Legend:
# MOLM-13 cells = test: MOLM-13 cell viability assay (CTG, 72 h); type: cell-based, human; parameters: key to Cell viability in MOLM-13 cells / cell viability, dose-response replicate values: % viability = 100 − % activity, normalized to controls; details: for Cell viability in MOLM-13 cells: Lenalidomide series
# Procedure: The primary screen was performed in 384-well format using the CellTiter Glo (CTG) luminescent cell viability assay (Promega) as previously described. […] After overnight incubation at 37 °C in a humidified 5% CO2 incubator, cells were treated with compounds in dose–response format using a Pintool on a Biomek FX^P Laboratory Automation Workstation (Beckman Coulter). […] Luminescence signal was measured using an EnVision plate reader (PerkinElmer). […]
# number per well and incubated overnight at 37 °C in a humidified 5 % CO2 incubator. Compounds were transferred to the assay plate from a dose-response plate using a Labcyte Echo 650 Acoustic Liquid Handler (Beckman Coulter , USA). […]
# using Promega’s CellTiter-Glo reagent according to the manufacturer’s recommendation.
# Luminescence was measured on the Envision plate reader (PerkinElmer, USA). Raw luminescence relative light unit (RLU) values for each compound at each concentration were normalized to obtain % activity using the following equation (1): 100 × [(mean(negctrl) – compound)/(mean (negctrl) – mean (posctrl))]. The % activity was converted to % viability using the following equation (2):
# (100 – % activity), and then pooled from replicate experiments prior to fitting. Here, negctrl and posctrl refer to the negative (DMSO) and positive controls (staurosporine) on each plate. Dose-response curves were fit to the Hill equation using the GraphPad Prism (version 10). […]
# [1] = test system: panel of 9 human cancer cell lines (HD-MB03, MB004, MB002, MHH-CALL4, MOLM-13, TF-1, HEL, OCI-AML3, AML193); test: Molecular glue library screening, CellTiter-Glo cell viability, 72 h; type: cell-based; details: CTG, dose-response
# Procedure: We screened our molecular glue library (3630 compounds) against a panel of 9 pediatric cancer cell lines to identify molecules displaying cell-selective sensitivities. In addition to the four cell lines we previously described (MB002, MB004, HD-MB03, and MHHCALL-4)[27], we included five additional AML cell lines (MOLM-13, TF-1, HEL, OCI-AML3, and AML193) to cover a broader range of genetic diversity and cancer vulnerabilities. The library screening was performed in high throughput (384-well plates) by incubating the cells with compounds for 72 h and assessing cell viability via CellTiter-Glo (CTG) in a dose–response manner, as reported previously.
# The primary screen was performed in 384-well format using the CellTiter Glo (CTG) luminescent cell viability assay (Promega) as previously described. 3630 compounds from the St. Jude proprietary molecular glue library were screened against 9 human cancer cell lines (HD-MB03, MB004, MB002, MHH-CALL4, MOLM-13, TF-1, HEL, OCI-AML3, AML193). Each cell line was cultured in the complete medium recommended by the vendor and seeded in Corning 8804 BC white 384-well assay plates at densities of 1000, 1000, 1500, 7500, 1250, 156, 625, 1250, 1250 cells per well for HD-MB03, MB004, MB002, MHH-CALL4, MOLM-13, TF-1, HEL, OCI-AML, AML193, respectively. After overnight incubation at 37 °C in a humidified 5% CO2 incubator, cells were treated with compounds in dose–response format using a Pintool on a Biomek FX^P Laboratory Automation Workstation (Beckman Coulter). After 72 h of incubation, cell proliferation was assessed using a CellTiter-Glo (CTG) luminescent cell viability assay (Promega) according to the manufacturer’s instructions. Luminescence signal was measured using an EnVision plate reader (PerkinElmer).
compound,measurement,setting,value
"Nc1cccc2c1CN(C1CCC(=O)NC1=O)C2=O (centres unmarked) [lenalidomide, reference compound]",Effect on MOLM-13 cell viability (cytotoxicity),MOLM-13 cells; CTG 72 h,did not show appreciable cytotoxicity
same,Cell viability in MOLM-13 cells,MOLM-13 cells; Conc 0.00055545,109.633 and 88.9306 and 94.0401
same,Cell viability in MOLM-13 cells,MOLM-13 cells; Conc 0.00166636,93.576 and 90.3639 and 96.1559
same,Cell viability in MOLM-13 cells,MOLM-13 cells; Conc 0.00499909,90.3167 and 93.3429 and 87.1
same,Cell viability in MOLM-13 cells,MOLM-13 cells; Conc 0.0149973,104.685 and 79.7406 and 92.7317
same,Cell viability in MOLM-13 cells,MOLM-13 cells; Conc 0.0449918,87.2291 and 84.4121 and 81.9827
same,Cell viability in MOLM-13 cells,MOLM-13 cells; Conc 0.134975,84.7339 and 87.0092 and 84.0481
same,Cell viability in MOLM-13 cells,MOLM-13 cells; Conc 0.404926,83.6134 and 73.5361 and 80.3173
same,Cell viability in MOLM-13 cells,MOLM-13 cells; Conc 1.21478,75.0522 and 81.9691 and 77.2827
same,Cell viability in MOLM-13 cells,MOLM-13 cells; Conc 3.64433,84.7767 and 72.5751 and 71.171
same,Cell viability across the panel of AL and MB cell lines,[1],inactive
